Data on three molecules can be found in patent US20090215822A1, “Substituted Oxadiazole Derivatives as Positive Allosteric Modulators of Metabotropic Glutamate Receptors” (NIKEM RESEARCH SRL, priority 2005, published 2009).

In data set [1] the target is T1, rat mGluR5 receptor (Rattus norvegicus, UniProt P31424).
T1 construct: expressed in transfected cells
The data set is described as follows: mGluR5 assay on HEK-expressing rat mGluR5 (fluorescent cell based Ca2+ mobilization assay). As to conditions: for activation of rat mGluR5 receptors without co-addition of glutamate: HEK-rat mGluR5 cell line, no added glutamate or agonist. The method, then: Positive functional expression of HEK-293 cells stably expressing rat mGluR5 receptor was determined by measuring intracellular Ca^2+ changes using a Fluorometric Imaging Plate Reader (FLIPR, Molecular Devices, Sunnyvale, Calif.) in response to glutamate or selective known mGluR5 agonists and antagonists. Rat mGluR5 RT-PCR products in HEK-293 cells were sequenced and found 100% identical to rat mGluR5 Genbank reference sequence (NM_017012). HEK-293 cells expressing rmGluR5 were maintained in media containing DMEM, dialyzed Fetal Bovine Serum (10%), Glutamax™ (2 mM), Penicillin (100 units/ml), Streptomycin (100 μg/ml), Geneticin (100 μg/ml) and Hygromycin-B (40 μg/ml) at 37° C./5% CO2.
After one day of incubation, cells were washed with assay buffer containing: 142 mM NaCl, 6 mM KCl, 1 mM Mg2SO4, 1 mM CaCl2, 20 mM HEPES, 1 g/L glucose, 0.125 mM sulfinpyrazone, pH 7.4. After 60 min of loading with 4 uM Fluo-4 (TefLabs, Austin, Tex.), the cells were washed three times with 50 μl of PBS Buffer and resuspended in […] of assay Buffer. The plates were then transferred to a Fluorometric Imaging Plate Reader (FLIPR, Molecular Devices, Sunnyvale, Calif.) for the assessment of intracellular calcium flux. After monitoring the baseline fluorescence for 10 seconds, increasing concentrations of representative compound (from 0.01 to 60 μM) of the present invention diluted in Assay Buffer (15 μl of 4× dilutions) was added to the cell. The final DMSO concentration in the assay was 0.3%. In each experiment, fluorescence was then monitored as a function of time for 3 minutes and the data analyzed using Microsoft Excel and GraphPad Prism. Each data point was also measured two times.
Under these experimental conditions, this HEK-rat mGluR5 cell line is able to directly detect positive allosteric modulators without the need of co-addition of glutamate or mGluR5 agonist.
The concentration-response curves of representative compounds of the present invention were generated using the Prism GraphPad software (Graph Pad Inc, San Diego, USA). The curves were fitted to a four-parameter logistic equation:
(Y=Bottom+(Top-Bottom)/(1+10̂((Log EC50−X)*Hill Slope)
allowing determination of EC50 values.
The Table 1 below represents the mean EC50 obtained from at least three independent experiments of selected molecules performed in duplicate.
Background: A change in cytosolic calcium serves as a functional read-out for many receptors and channels.

Data set [2] deals with T2, mGluR5 (Rattus norvegicus, UniProt P31424).
T2 construct: positive allosteric modulators of mGluR5 receptors in native preparations; endogenous in cells; host or cells: primary cortical astrocytes from Sprague-Dawley rat embryos (E16-19)
As to conditions: Liu et al (2006), Zhang et al (2005); cited from earlier work.

Data set [3] concerns the target T2, mGluR5. The experiment in a line: mGluR5 binding assay ([3H]-MPEP, rat brain membranes). The settings on record: 3 nM [3H]-MPEP, rat cortical membranes, 1 h at 4° C.; read-out: IC50, inhibition of [3H]-MPEP binding. An excerpt:
Activity of compounds of the invention was examined following a radioligand binding technique using whole rat brain and tritiated 2-methyl-6-(phenylethynyl)-pyridine ([^3H]-MPEP) as a ligand following similar methods than those described in Gasparini et al. (2002) Bioorg. Med. Chem. Lett. 12:407-409 and in Anderson et al. (2002) J. Pharmacol. Exp. Ther. 303 (3) 1044-1051.
Cortices were dissected out from brains of 200-300 g Sprague-Dawley rats (Charles River Laboratories, L'Arbresle, France). Tissues were homogenized in 10 volumes (vol/wt) of ice-cold 50 mM Hepes-NaOH (pH 7.4) using a Polytron disrupter (Kinematica A G, Luzern, Switzerland) and centrifuged for 30 min at 40,000 g. (4° C.). […] Protein concentration was determined by the Bradford method (Bio-Rad protein assay, Reinach, Switzerland) with bovine serum albumin as standard.
Membranes were thawed and resuspended in binding buffer containing 20 mM HEPES-NaOH, 3 mM MgCl2, 3 mM CaCl2, 100 mM NaCl, pH 7.4. […] Radioactivity was determined by liquid scintillation spectrometry using a 96-well plate reader (TopCount, Perkin-Elmer, Downers Grove, USA).
The inhibition curves were generated using the Prism GraphPad program (Graph Pad Software Inc, San Diego, USA). […] The mean of IC50 obtained from at least three independent experiments of selected molecules performed in duplicate were calculated.

The subject of data set [4] is Male C57BL6/j mice. The data set is described as follows: Amphetamine model of schizophrenia (amphetamine-induced locomotor activity). Type of data set: in vivo. As to conditions: 30 mg/kg ip, 120 min before amphetamine 3.0 mg/kg s.c., first 30 minutes of a 60 minute session. The text has this:
Amphetamine-induced increases in locomotor ambulation are well known and are widely used as a model of the positive symptoms of schizophrenia. This model is based on evidence that amphetamine increases motor behaviors and can induce a psychotic state in humans (Yui et al. (2000) Ann. N.Y. Acad. Sci. 914:1-12). Further, it is well known that amphetamine-induced increases in locomotor activity are blocked by antipsychotics drugs that are effective in the treatment of schizophrenia (Arnt (1995) Eur. J. Pharmacol. 283:55-62).
Subjects: The present studies were performed in accordance with the animal care and use policies of Addex Pharmaceuticals and the laws and directives of Switzerland governing the care and use of animals. Male C57BL6/j mice (20-30 g) 7 weeks of age at the time of delivery were group housed in a temperature and humidity controlled facility on a 12 hour light/dark cycle for at least 7 days before use. Mice had access to food and water ad libitum except during locomotor activity experiments.
Assessment of locomotor (ambulatory) activity: The effects of compounds on amphetamine-induced locomotor activation in mice were tested. […] Locomotor activity (ambulations) was monitored by a videotracking system (VideoTrack, Viewpoint, Champagne au Mont d'Or, France) that recorded the ambulatory movements of mice. […] On test days, test compounds (10, 30, 50 or 100 mg/kg i.p. (intraperitoneal)) or vehicle were administered 120 minutes before amphetamine (3.0 mg/kg s.c.) or saline injection: Mice were placed into the locomotor boxes immediately after amphetamine or saline vehicle injection and their locomotor activity, defined as the distance traveled in centimeters (cm), was measured for 60 minutes.
Compound administration: The test compound was dissolved in a 5% DMSO/20% Tween 80/75% saline vehicle and administered in a volume of 10 ml/kg. […] D-amphetamine sulfate (Amino A G, Neuenhof, Switzerland) was dissolved in saline and administered at a dose of 3.0 mg/kg s.c. (expressed as the base) in a volume of 10 ml/kg. […]

Bounds are passed on as bounds.

T2 sequence (P31424 21-1203): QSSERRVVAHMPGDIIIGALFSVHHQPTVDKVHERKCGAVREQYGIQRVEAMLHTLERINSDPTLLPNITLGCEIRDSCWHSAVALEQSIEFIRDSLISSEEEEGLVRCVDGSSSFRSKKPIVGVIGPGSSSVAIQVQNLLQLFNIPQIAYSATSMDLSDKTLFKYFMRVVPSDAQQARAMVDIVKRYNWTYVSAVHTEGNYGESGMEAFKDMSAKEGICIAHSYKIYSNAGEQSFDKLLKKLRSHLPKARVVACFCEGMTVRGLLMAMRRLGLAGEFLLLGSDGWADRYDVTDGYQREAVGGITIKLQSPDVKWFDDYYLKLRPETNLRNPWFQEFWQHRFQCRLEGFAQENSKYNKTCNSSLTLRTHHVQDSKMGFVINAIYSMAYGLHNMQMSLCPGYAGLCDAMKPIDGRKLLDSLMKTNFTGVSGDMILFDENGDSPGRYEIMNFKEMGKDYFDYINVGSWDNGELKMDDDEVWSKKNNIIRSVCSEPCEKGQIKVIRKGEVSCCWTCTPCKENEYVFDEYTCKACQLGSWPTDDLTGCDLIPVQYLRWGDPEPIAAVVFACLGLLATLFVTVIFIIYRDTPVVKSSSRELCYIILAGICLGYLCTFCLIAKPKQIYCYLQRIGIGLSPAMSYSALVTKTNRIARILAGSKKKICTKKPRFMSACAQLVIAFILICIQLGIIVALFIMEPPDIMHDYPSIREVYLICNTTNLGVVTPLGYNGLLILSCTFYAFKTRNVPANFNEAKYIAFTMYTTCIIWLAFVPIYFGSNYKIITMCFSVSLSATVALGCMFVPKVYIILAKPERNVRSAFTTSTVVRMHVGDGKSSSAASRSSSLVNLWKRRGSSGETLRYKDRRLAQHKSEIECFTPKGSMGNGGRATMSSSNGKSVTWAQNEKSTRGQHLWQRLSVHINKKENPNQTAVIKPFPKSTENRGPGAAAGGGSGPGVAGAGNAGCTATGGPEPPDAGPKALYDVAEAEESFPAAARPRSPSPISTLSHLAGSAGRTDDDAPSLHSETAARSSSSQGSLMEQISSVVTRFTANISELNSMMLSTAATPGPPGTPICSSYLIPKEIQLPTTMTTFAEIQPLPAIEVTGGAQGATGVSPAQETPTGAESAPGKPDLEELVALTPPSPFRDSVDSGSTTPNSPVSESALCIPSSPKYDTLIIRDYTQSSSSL
T1 sequence (P31424 21-1171 isoform P31424-2 limits assumed): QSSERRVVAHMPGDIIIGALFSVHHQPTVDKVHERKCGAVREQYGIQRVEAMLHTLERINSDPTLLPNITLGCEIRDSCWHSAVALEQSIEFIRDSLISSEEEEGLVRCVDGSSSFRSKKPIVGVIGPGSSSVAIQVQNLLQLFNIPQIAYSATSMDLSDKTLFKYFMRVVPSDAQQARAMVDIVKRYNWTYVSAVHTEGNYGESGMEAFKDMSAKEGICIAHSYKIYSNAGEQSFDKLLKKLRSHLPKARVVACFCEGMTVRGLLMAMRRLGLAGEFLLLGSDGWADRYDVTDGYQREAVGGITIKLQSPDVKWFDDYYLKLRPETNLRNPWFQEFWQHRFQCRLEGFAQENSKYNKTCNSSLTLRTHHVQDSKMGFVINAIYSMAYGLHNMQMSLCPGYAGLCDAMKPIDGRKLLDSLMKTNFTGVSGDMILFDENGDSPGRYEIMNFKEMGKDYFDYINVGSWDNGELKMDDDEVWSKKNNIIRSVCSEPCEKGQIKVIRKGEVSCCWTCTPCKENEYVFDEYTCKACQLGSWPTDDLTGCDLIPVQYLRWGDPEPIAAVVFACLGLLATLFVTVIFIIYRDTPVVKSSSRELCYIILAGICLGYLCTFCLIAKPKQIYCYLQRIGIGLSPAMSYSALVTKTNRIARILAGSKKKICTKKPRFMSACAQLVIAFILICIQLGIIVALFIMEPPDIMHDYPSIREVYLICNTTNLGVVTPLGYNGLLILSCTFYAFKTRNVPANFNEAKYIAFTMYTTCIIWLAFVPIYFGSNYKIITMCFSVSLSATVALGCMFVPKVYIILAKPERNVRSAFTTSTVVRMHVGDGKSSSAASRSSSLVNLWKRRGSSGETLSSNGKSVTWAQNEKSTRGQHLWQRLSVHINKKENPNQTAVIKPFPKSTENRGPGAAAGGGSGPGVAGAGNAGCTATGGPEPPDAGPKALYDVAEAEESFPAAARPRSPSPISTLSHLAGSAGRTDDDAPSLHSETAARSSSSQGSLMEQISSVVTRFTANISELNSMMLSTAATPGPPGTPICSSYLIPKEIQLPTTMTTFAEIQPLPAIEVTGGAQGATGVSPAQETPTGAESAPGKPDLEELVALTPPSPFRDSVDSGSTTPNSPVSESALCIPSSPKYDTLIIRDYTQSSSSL

For the molecule `O=C(Nc1ccc(Cl)cc1CN1C(=O)c2ccccc2C1=O)c1ccccc1O` [CPPHA, reference compound], the “activation of rat mGluR5 receptors without co-addition of glutamate” value in data set [1] was “activating”. The “activity in rat cortical astrocytes culture in the absence of added glutamate” value in data set [2] is “inactive”.

One may read the EC50 as the concentration that produces a half-maximal response. One may read the IC50 as the concentration at which inhibition is half-maximal. What is called melting point is the temperature of the solid-liquid transition. In the case of `O=C(c1ccc(F)cc1)N1CCC[C@H](c2noc(-c3ccc(F)cc3)n2)C1` [Example 1, (4-Fluoro-phenyl)-{(S)-3-[5-(4-fluoro-phenyl)-[1,2,4]oxadiazol-3-yl]-piperidin-1-yl}-methanone], the melting point fell in the range of 157 to 160 °C. Further, in data set [1] (HEK-293 cells stably expressing rat mGluR5, no co-addition of glutamate, mean of at least three independent experiments in duplicate, read-out: Ca++ Flux (mean EC50)), the EC50 is less than 1 µM. Also, the IC50 in data set [3] was less than 30 µM. In addition, in data set [4], the “increase in locomotor activity induced by amphetamine” value (“increase” for short) is “significantly attenuated”. Also, the “increase” value in data set [4] (listed as compound # 1) is “significantly attenuated”. Further, the “increase” value in data set [4] (listed as example #1) is on record as “significantly attenuate”.

`N#Cc1cccc(C(=O)Nc2cc(-c3ccccc3)nn2-c2ccccc2)c1` [CDPPB, reference compound]: the “activation of rat mGluR5 receptors without co-addition of glutamate” value in data set [1] is “activating”. Further, the “activity in rat cortical astrocytes culture in the absence of added glutamate” value in data set [2] was “inactive”.
